# Experimental data as given in patent publication US9951010B2, “Compounds as CRTH2 antagonist and uses thereof” (SUNSHINE LAKE PHARMA CO., LTD., priority 2014, dated 2018).
# Experiments:
# [1] = Metabolic stability in rat liver microsomal; assay type: in vitro ADME; settings: liver microsomes, pH 7.4, 37° C.
# Protocol: (§1) The analysis was performed using a 4000 QTRAPP series LC/MS/MS mass spectrometer equipped with Agilent 1200 dual injection pumps, 1290 automatic sampler, column oven and ESI source, detecting by the negative ion MRM mode. Waters Xbridge C18 column was used in the analysis, and the mobile phase consisted of phase (A) (2 mM ammonium formate+0.1% aqueous ammonia solution) and phase (B) (2 mM ammonium formate+0.1% ammonia methanol solution), the flow rate was 0.4 mL/min, column temperature was 40° C., the amount of injection was 3 μL.
# (§2) A mixture of the compound and human liver microsomal, a mixture of the compound and dog liver microsomal, or a mixture of the compound and rat liver microsomal were separately incubated at 37° C., under a condition of pH7.4. The sample concentrations at various incubative times were detected by LC/MS/MS (the method described in biologic example 3), speed constant was obtained by plotting “Log [drug concentration]” to “incubative time” in GraphPad Prism 5.01, and the drug half-life and intrinsic clearance rate were calculated; metabolic stability of the compound in liver microsomal were evaluated based on the drug half-life and intrinsic clearance rate.
# [2] = system: eosinophilia in airway of Wistar rats induced by DK-PGD2; assay: Eosinophilia in airway of Wistar rats induced by DK-PGD2, cell count in BALF; assay type: in vivo; set-up: The total number of white blood cells: unit not given here
# Protocol: Purpose: evaluation of inhibitory effects of the compounds on the total number of white blood cells and eosinophilia in airway of Wistar rats induced by DK-PGD2.
# Process: observation on the drug therapeutic effect through preventive medication. Specific operation: After 0.5 h of administering a preventive dose, the administered group and model group were induced eosinophilia with 100 μL of DK-PGD2 by spray injection through airway of rats, the blank group was spray injected with a corresponding dose of normal saline; after 24 h of molding, the rats were killed by bloodletting from aorta abdominalis, exposing the airway and the chest, performing the trachea cannula, and the bronchial pulmonary alveoli were lavaged with 8 mL of 1% BSA in PBS in twice, the bronchoalveolar lavage fluids (BALF) were collected and placed in an ice-bath; after smear, the cells were differential counted. The concentration of DK-PGD2 mother liquor was 10 mg/mL, which was diluted 5 folds to get 2 mg/mL.
# [3] = Metabolic stability in human liver microsomal; assay type: in vitro ADME; settings: liver microsomes, pH 7.4, 37° C.
# Protocol: as §1, §2
# [4] = system: OVA (ovalbumin)-induced asthmatic model in rats; assay: OVA (ovalbumin)-induced asthmatic model in rats, count of white blood cells in lung lavage; assay type: in vivo; settings: OVA-sensitized rats, gavage once a day for three days, lung lavage solution
# Protocol: The experiment purpose was to assess the drug efficacy of the test compound in OVA (ovalbumin)-induced asthmatic model in rats.
# Grouping the animal randomly to control group, model group and administered group. At the first, second and third day, the control group was administered with 1 mL of PBS (phosphate buffer solution) by intraperitoneal injection, and the model group and administered group were administered with a sensitization solution (prepared by mixing 6 mL of 1% OVA in phosphate buffer solution and 54 mL of alum solution at a ratio of 1:9) by intraperitoneal injection per day (1 mL per rat).
# From the nineteenth day, the administered group was administered with the test compound at a certain dose by gavage, and the control group and model group was administered with the menstruum at a corresponding dose by gavage, once a day for three days. After 1 hour of administering each day, attacking the model group and administered group with 1% OVA in phosphate buffer solution and the control group with phosphate buffer solution for 20 min.
# At the twenty-third day, the animals were anesthetized with 1% pentobarbital sodium (60 mg/Kg) by intraperitoneal injection. The blood samples were collected from aorta abdominalis under pentobarbital sodium anaesthesia into EDTA-K2 tubes. After tracheal intubation was performed, the lung of the animals were lavaged with 3 mL of PBS containing 1% FBS (Fetal Bovine Serum) once, and then lavaged with 5 mL of PBS containing 1% FBS at least two times; the volume of the combined lavage solutions were adjusted to 15 mL. The total cells in the lavage solution were counted by using a hemacytometer and a Trypan blue staining method and then white blood cells in the lavage solution were counted differentially.
# [5] = Detection of PK in Beagle dogs; assay type: in vivo; settings: male, dog, plasma
# Protocol: as §1
# (§3) The male Beagle dogs or rats were administered with the compound of the invention by intravenous injection (0.4 mg/Kg) and gavage (1 mg/Kg) respectively, the blood samples were collected at the time point of 0.083, 0.25, 0.5, 1, 2, 4, 6, 8, 10, 24 and 36 h and then centrifuged to obtain plasma samples. The compound concentrations in plasma samples at various times were detected by LC/MS/MS (the method described in biologic example 3), the main pharmacokinetic parameters were calculated, and pharmacokinetic properties of the compounds of the invention in Beagle dogs or rats were evaluated.
# [6] = Metabolic stability in dog liver microsomal; assay type: in vitro ADME; settings: liver microsomes, pH 7.4, 37° C.
# Protocol: as §1, §2
# Detection of PK in rats = assay type: in vivo; settings: rat, plasma
# Protocol: as §1, §3
# CRTH2 receptor = target: T1, CRTH2 receptor (Homo sapiens, UniProt Q9Y5Y4); assay: FLIPR detection of inhibitory activity against CRTH2 (CHO-K1/G cells, PGD2 as agonist); assay type: cell-based; settings: CHO-K1/G cells with stable expression of CRTH2 receptor, PGD2 at EC80, FLIPR
# T1 construct: expressed in transfected cells; host or cells: CHO-K1/G cells
# T1 sequence (Q9Y5Y4 1-395): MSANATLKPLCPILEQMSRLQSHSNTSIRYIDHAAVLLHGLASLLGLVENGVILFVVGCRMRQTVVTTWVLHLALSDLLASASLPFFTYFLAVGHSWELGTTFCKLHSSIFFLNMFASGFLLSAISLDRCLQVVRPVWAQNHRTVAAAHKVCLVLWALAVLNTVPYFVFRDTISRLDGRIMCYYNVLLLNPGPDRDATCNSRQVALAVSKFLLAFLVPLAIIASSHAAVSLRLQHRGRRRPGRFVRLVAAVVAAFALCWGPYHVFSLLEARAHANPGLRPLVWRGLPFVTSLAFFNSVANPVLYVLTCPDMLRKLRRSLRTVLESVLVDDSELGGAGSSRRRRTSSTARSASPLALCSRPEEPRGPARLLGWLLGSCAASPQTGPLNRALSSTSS
# Protocol: The test compound was weighed accurately and then dissolved in a suitable amount of DMSO to prepare a stock solution at a concentration of 10 mM; after clear and transparent, the stock solution was subpackaged and cryostoraged at −20° C. for use. Before testing, the test compound was diluted with balanced salt solution (HBSS buffer, containing 4-(2-hydroxyethyl)piperazine-1-ethanesulfonicacid) at a concentration of 20 mM) to 5 times testing concentration.
# CHO-K1/G cells with stable expression of CRTH2 receptor were prepared to 5 times testing concentration and seeded into 384-microwell plate, and incubated in an incubator at 37° C./5% CO2. After incubating for 18 hours, to the cells in 384-microwell plate was added 20 μL of dye followed by the addition of 10 μL of prepared test compound solution. And then the cell plate was incubated in the incubator at 37° C./5% CO2 for 1 hour, at last which was balanced at rt for 15 min. After adding 12.5 μL of positive agonist (PGD2) at a concentration of 5 times EC80 to each well of the cell plate, the RFU (fluorescence intensity) value of the test compound was detected.
# The data were recorded from ScreenWorks (version 3.1), and collected and analyzed by using Excel and GraphPad Prism 6 software to calculate the values of IC50.
# [7] = pH7.4, intrinsic clearance, read-out: Clearance rate
# [8] = pH7.4, read-out: Drug half-life
# [9] = Wistar rats, 10 mg/Kg preventive dose 0.5 h before DK-PGD2, BALF after 24 h
smiles,measurement,setting,value
"Cc1c(C2CCN(S(=O)(=O)c3ccc(F)cc3)CC2)c2cc(F)ccc2n1CC(=O)O [Example 24, 2-(5-fluoro-3-(1-((4-fluorophenyl)sulfonyl)piperidin-4-yl)-2-methyl-1H-indol-1-yl)acetic acid]",CLint scaled,[1]; [7],13.8 mL/min/kg
same,half-life,[1]; [8],3 h
same,inhibitory effects on the total number of white blood cells and the number of eosinophilic granulocytes,"[2]; Wistar rats induced by DK-PGD2, compared with OC000459",stronger than those of OC000459
same,Eosinophilic granulocyte C (10^5/ml),[2]; [9],0.0804 ± 0.02^## 10^5/ml
same,Eosinophilic granulocyte Inhibition rate,[2]; [9],80.77%
same,The total number of white blood cells,[2]; [9],1.881 ± 0.26
same,CLint scaled,[3]; [7],2.55 mL/min/kg
same,half-life,[3]; [8],11.4 h
same,Eosinophilic granulocyte Inhibition ratio,[4],36.8%
same,Eosinophilic granulocyte Number (×10^5/mL),[4],145.82 ×10^5/mL
same,Total number of white cells (×10^5/mL),[4],272.775 ×10^5/mL
same,AUC(0-inf),"[5]; iv, 0.4 mg/Kg",5500 ng·h/mL
same,AUC(0-t),"[5]; iv, 0.4 mg/Kg",5400 ng·h/mL
same,Cmax,"[5]; iv, 0.4 mg/Kg",3210 ng/mL
same,half-life,"[5]; iv, 0.4 mg/Kg",4.72 h
same,AUC(0-inf),"[5]; po, p.o. (gavage), 1 mg/Kg",6920 ng·h/mL
same,AUC(0-t),"[5]; po, p.o. (gavage), 1 mg/Kg",6600 ng·h/mL
same,Cmax,"[5]; po, p.o. (gavage), 1 mg/Kg",1160 ng/mL
same,half-life,"[5]; po, p.o. (gavage), 1 mg/Kg",10.8 h
same,CLint scaled,[6]; [7],1.37 mL/min/kg
same,half-life,[6]; [8],42.1 h
same,AUC(0-inf),"Detection of PK in rats; iv, 0.4 mg/Kg",1030 ng·h/mL
same,AUC(0-t),"Detection of PK in rats; iv, 0.4 mg/Kg",991 ng·h/mL
same,Cmax,"Detection of PK in rats; iv, 0.4 mg/Kg",757 ng/mL
same,half-life,"Detection of PK in rats; iv, 0.4 mg/Kg",3.4 h
same,AUC(0-inf),"Detection of PK in rats; po, p.o. (gavage), 1 mg/Kg",1890 ng·h/mL
same,AUC(0-t),"Detection of PK in rats; po, p.o. (gavage), 1 mg/Kg",1710 ng·h/mL
same,Cmax,"Detection of PK in rats; po, p.o. (gavage), 1 mg/Kg",393 ng/mL
same,half-life,"Detection of PK in rats; po, p.o. (gavage), 1 mg/Kg",4.37 h
same,IC50,CRTH2 receptor,148 nM
